We go through 17 compounds from patent publication US11384063B2, “Modulators of estrogen receptor proteolysis and associated methods of use” (Arvinas Operations, Inc., priority 2017, dated 2022).

Assay [1] deals with T1, ERα (Homo sapiens, UniProt P03372).
T1 sequence (P03372 1-595): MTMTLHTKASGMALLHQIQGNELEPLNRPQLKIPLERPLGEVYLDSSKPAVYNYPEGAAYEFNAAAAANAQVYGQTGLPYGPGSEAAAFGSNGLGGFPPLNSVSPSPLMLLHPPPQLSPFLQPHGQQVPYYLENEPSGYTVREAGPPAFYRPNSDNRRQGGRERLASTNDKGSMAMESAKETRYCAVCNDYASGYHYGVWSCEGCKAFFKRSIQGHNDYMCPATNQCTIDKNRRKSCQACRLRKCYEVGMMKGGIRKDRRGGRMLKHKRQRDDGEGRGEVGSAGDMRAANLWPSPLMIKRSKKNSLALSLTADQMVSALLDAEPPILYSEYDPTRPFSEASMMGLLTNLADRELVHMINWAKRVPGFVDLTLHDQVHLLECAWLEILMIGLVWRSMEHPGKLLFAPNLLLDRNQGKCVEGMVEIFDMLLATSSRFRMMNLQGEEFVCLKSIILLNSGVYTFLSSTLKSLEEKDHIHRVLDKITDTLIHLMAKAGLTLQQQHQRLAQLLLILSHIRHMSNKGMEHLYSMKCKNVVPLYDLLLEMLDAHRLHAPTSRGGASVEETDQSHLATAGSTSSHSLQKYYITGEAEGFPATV
As to the kind of experiment: Estrogen receptor-alpha (ERα) degradation assay in MCF7 cells using In-Cell Western assay. The class given is cell-based. Also noted: assessed for their activity in degrading ERα in MCF-7 cells via western blot; endogenous in cells; host or cells: MCF7 cells. Particulars: ER-alpha degradation in MCF7 cells, 5 days of incubation. In outline: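 MCF7 cells treated 3 or 5 days at 37 °C with 11-point 3-fold dilutions from 1 μM final top. Fixed cells immunostained for ERα and tubulin, read by infrared imaging at 700/800 nm. ERα normalized to tubulin then to DMSO vehicle; DC50 and Dmax from 4-parameter curve fit.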

For assay [2], the target named is T1, ERα. The assay is described as follows: ERE luciferase reporter gene assay in T47D-KBluc cells (target engagement). On the set-up: T47D human breast cancer cells stably transfected with estrogen responsive element/promoter/luciferase reporter gene; host or cells: T47D-KBluc cells. The assay is classed as cell-based. Particulars: 10% FBS, 24 hours, Table 3 cereblon centric PROTACs, read-out: ER-α Luciferase IC50. In outline: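 PROTACs were tested at 12 concentrations from 300 nM down to 2 pM in 3-fold steps for 24 h on T47D-KBluc cells with a stable ERE-driven luciferase. Medium was RPMI with 10% FBS, measured at 10 pM estrogen. IC50 came from luminescence after lysis, in duplicate.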

For orientation: DC50 means the concentration giving 50% degradation. A lower DC50 goes with degradation at low concentration. By Dmax is commonly meant the greatest extent of degradation seen. The term IC50 denotes the concentration at which inhibition is half-maximal. On ERα [1], `O=C1CCC(N2Cc3cc(N4CCN(C5CC(Oc6ccc(Oc7c(-c8ccc(Br)cc8)sc8cc(O)ccc78)cc6)C5)CC4)ccc3C2=O)C(=O)N1` (centres unmarked) [Compound 224, 3-[5-[4-[3-[4-[2-(4-bromophenyl)-6-hydroxy-benzothiophen-3-yl]oxyphenoxy]cyclobutyl]piperazin-1-yl]-1-oxo-isoindolin-2-yl]piperidine-2,6-dione] yielded a DC50 of 1 to 10 nM and a Dmax of 50 to 75%. For the same compound, the IC50 at ERα [2] was 7.7 nM.
`O=C1CCC(N2C(=O)c3ccc(N4CCN(CCOCc5ccc(Oc6c(-c7ccc(Br)cc7)sc7cc(O)ccc67)cc5)CC4)cc3C2=O)C(=O)N1` (centres unmarked) [Compound 225, 5-[4-[2-[[4-[2-(4-bromophenyl)-6-hydroxy-benzothiophen-3-yl]oxyphenyl]methoxy]ethyl]piperazin-1-yl]-2-(2,6-dioxo-3-piperidyl)isoindoline-1,3-dione] gave a Dmax on ERα [1] of under 50%. Also, the IC50 on ERα [2] is 4.8 nM.
Take `O=C1CCC(N2Cc3cc(N4CCN(CC5CCN(c6ccc(Oc7c(-c8ccc(F)cc8)sc8cc(O)ccc78)cc6)CC5)CC4)ccc3C2=O)C(=O)N1` (centres unmarked) [Compound 226, 3-[5-[4-[[1-[4-[2-(4-fluorophenyl)-6-hydroxy-benzothiophen-3-yl]oxyphenyl]-4-piperidyl]methyl]piperazin-1-yl]-1-oxo-isoindolin-2-yl]piperidine-2,6-dione]: at ERα [1], the half-maximal degradation concentration (DC50) lay in the range of 1 to 10 nM and the Dmax is over 75%. In addition, the IC50 on ERα [2] was 1.2 nM.
On ERα [1], `O=C1CCC(N2C(=O)c3ccc(N4CCN(CC5CCN(c6ccc(Oc7c(-c8ccc(F)cc8)sc8cc(O)ccc78)cc6)CC5)CC4)cc3C2=O)C(=O)N1` (centres unmarked) [Compound 227, 2-(2,6-dioxo-3-piperidyl)-5-[4-[[1-[4-[2-(4-fluorophenyl)-6-hydroxy-benzothiophen-3-yl]oxyphenyl]-4-piperidyl]methyl]piperazin-1-yl]isoindoline-1,3-dione] displayed a DC50 of 1 to 10 nM and a maximal degradation (Dmax) of over 75%. The IC50 on ERα [2] was 7 nM.
As to `O=C1CCC(N2C(=O)c3ccc(N4CCN(CC5CCN(c6ccc(Oc7c(-c8ccc(Br)cc8)sc8cc(O)ccc78)cc6)CC5)CC4)cc3C2=O)C(=O)N1` (centres unmarked) [Compound 228, 5-[4-[[1-[4-[2-(4-bromophenyl)-6-hydroxy-benzothiophen-3-yl]oxyphenyl]-4-pipendyl]methyl]piperazin-1-yl]-2-(2,6-dioxo-3-piperidyl)isoindoline-1,3-dione], on ERα [1], the DC50 fell in the range of 1 to 10 nM and the Dmax was over 75%. Besides, the IC50 on ERα [2] was found to be 24.9 nM.
Consider `O=C1CCC(N2Cc3cc(N4CCN(CCC5CCN(c6ccc(Oc7c(-c8ccc(F)cc8)sc8cc(O)ccc78)cc6)CC5)CC4)ccc3C2=O)C(=O)N1` (centres unmarked) [Compound 229, 3-[5-[4-[2-[1-[4-[2-(4-fluorophenyl)-6-hydroxy-benzothiophen-3-yl]oxyphenyl]-4-piperidyl]ethyl]piperazin-1-yl]-1-oxo-isoindolin-2-yl]piperidine-2,6-dione], for which, at ERα [1], the DC50 was in the range of 1 to 10 nM and the Dmax is over 75%. Also, the IC50 on ERα [2] is 1 nM.
At ERα [1], `O=C1CCC(N2Cc3nc(N4CCN(CC5CCN(c6ccc(Oc7c(-c8ccc(F)cc8)sc8cc(O)ccc78)cc6)CC5)CC4)ccc3C2=O)C(=O)N1` (centres unmarked) [Compound 230, 3-[2-[4-[[1-[4-[2-(4-fluorophenyl)-6-hydroxy-benzothiophen-3-yl]oxyphenyl]-4-pipendyl]methyl]piperazin-1-yl]-5-oxo-7H-pyrrolo[3,4-b]pyridin-6-yl]piperidine-2,6-dione] registered a DC50 of 1 to 10 nM and a Dmax of over 75%. Besides, the IC50 at ERα [2] came out at 1.1 nM.
Taken in the same sequence, the figures for `O=C1CCC(N2Cc3cc(N4CCN(CC5CCN(c6ccc(Oc7c(-c8ccc(Br)cc8)sc8cc(O)ccc78)cc6)CC5)CC4)ccc3C2=O)C(=O)N1` (centres unmarked) [Compound 231, 3-[5-[4-[[1-[4-[2-(4-bromophenyl)-6-hydroxy-benzothiophen-3-yl]oxyphenyl]-4-piperidyl]methyl]piperazin-1-yl]-1-oxo-isoindolin-2-yl]piperidine-2,6-dione] were 1 to 10 nM, 50 to 75% and 7.1 nM.
At ERα [1], `O=C1CCC(N2Cc3cc(N4CCN(CC5CCN(c6ccc(Oc7c(-c8ccc(F)cc8)sc8cc(O)ccc78)cn6)CC5)CC4)ccc3C2=O)C(=O)N1` (centres unmarked) [Compound 232, 3-[5-[4-[[1-[5-[2-(4-fluorophenyl)-6-hydroxy-benzothiophen-3-yl]oxy-2-pyridyl]-4-piperidyl]methyl]piperazin-1-yl]-1-oxo-isoindolin-2-yl]piperidine-2,6-dione] registered a DC50 of under 1 nM and a Dmax of over 75%. Further, on ERα [2], the concentration for half-maximal inhibition (IC50) is 1.6 nM.
For the compound `COc1ccc(-c2sc3cc(O)ccc3c2Oc2ccc(N3CCC(CN4CCN(c5ccc6c(c5)CN(C5CCC(=O)NC5=O)C6=O)CC4)CC3)cc2)cc1` (centres unmarked) [Compound 234, 3-[5-[4-[[1-[4-[6-hydroxy-2-(4-methoxyphenyl)benzothiophen-3-yl]-oxyphenyl]-4-piperidyl]methyl]piperazin-1-yl]-1-oxo-isoindolin-2-yl]piperidine-2,6-dione], on ERα [1], the DC50 was under 1 nM and the Dmax fell in the range of 50 to 75%. Also, at ERα [2], the IC50 was 0.65 nM.
At ERα [1], `O=C1CCC(N2Cc3nc(N4CCN(CC5CCN(c6ccc(Oc7c(-c8ccc(Br)cc8)sc8cc(O)ccc78)cc6)CC5)CC4)ccc3C2=O)C(=O)N1` (centres unmarked) [Compound 235, 3-[2-[4-[[1-[4-[2-(4-bromophenyl)-6-hydroxy-benzothiophen-3-yl]oxyphenyl]-4-piperidyl]methyl]piperazin-1-yl]-5-oxo-7H-pyrrolo[3,4-b]pyridin-6-yl]piperidine-2,6-dione] showed a DC50 of 1 to 10 nM and a Dmax of over 75%. Moreover, the IC50 at ERα [2] turned out to be 6.9 nM.
Consider `O=C1CCC(N2Cc3cc(N4CCN(CC5CCN(c6ccc(Oc7c(-c8ccc(Br)cc8)sc8cc(O)ccc78)cn6)CC5)CC4)ccc3C2=O)C(=O)N1` (centres unmarked) [Compound 236, 3-[5-[4-[[1-[5-[2-(4-bromophenyl)-6-hydroxy-benzothiophen-3-yl]oxy-2-pyridyl]-4-piperidyl]methyl]piperazin-1-yl]-1-oxo-isoindolin--2-yl]piperidine-2,6-dione], for which, at ERα [1], the DC50 lay in the range of 1 to 10 nM and the Dmax was over 75%. In addition, the IC50 at ERα [2] stood at 4.9 nM.
At ERα [1], `COc1ccc(-c2sc3cc(O)ccc3c2Oc2ccc(N3CCC(CN4CCN(c5ccc6c(c5)C(=O)N(C5CCC(=O)NC5=O)C6=O)CC4)CC3)cc2)cc1` (centres unmarked) [Compound 237, 2-(2,6-dioxo-3-piperidyl)-5-[4-[[1-[4-[6-hydroxy-2-(4-methoxyphenyl)benzothiophen-3-yl]oxyphenyl]-4-piperidyl]methyl]piperazin-1-yl]isoindoline-1,3-dione] yielded a DC50 of 10 to 100 nM and a Dmax of over 75%. The IC50 on ERα [2] came out at 4.9 nM.
Consider `O=C1CCC(N2Cc3cc(N4CCN(CC5CCN(c6ccc(Oc7c(-c8ccc(Br)cc8)sc8cc(O)ccc78)cc6F)CC5)CC4)ccc3C2=O)C(=O)N1` (centres unmarked) [Compound 238, 3-[5-[4-[[1-[4-[2-(4-bromophenyl)-6-hydroxy-benzothiophen-3-yl]oxy-2-fluoro-phenyl]-4-piperidyl]methyl]piperazin-1-yl]-1-oxo-isoindolin-2-yl]piperidine-2,6-dione], for which, on ERα [1], the DC50 fell in the range of 10 to 100 nM and the Dmax was over 75%. The IC50 on ERα [2] was 10.9 nM.
For `O=C1CCC(N2Cc3nc(N4CCN(CC5CCN(c6ccc(Oc7c(-c8ccc(Br)cc8)sc8cc(O)ccc78)cc6F)CC5)CC4)ccc3C2=O)C(=O)N1` (centres unmarked) [Compound 239] the same measures were 10 to 100 nM, over 75% and 13.5 nM.
In the case of `O=C1CCC(N2Cc3nc(N4CCN(CC5CCN(c6ccc(Oc7c(-c8ccc(O)cc8)sc8cc(O)ccc78)cc6)CC5)CC4)ccc3C2=O)C(=O)N1` (centres unmarked) [Compound 243, 3-[2-[4-[[1-[4-[6-hydroxy-2-(4-hydroxyphenyl)benzothiophen-3-yl]oxyphenyl]-4-piperidyl]methyl]piperazin-1-yl]-5-oxo-7H-pyrrolo[3,4-b]pyridin-6-yl]piperidine-2,6-dione], on ERα [1], the DC50 was in the range of 1 to 10 nM and the Dmax lay in the range of 50 to 75%. The half-maximal inhibitory concentration (IC50) on ERα [2] was 0.18 nM.
For `O=C1CCC(N2Cc3cc(N4CCN(CC5CCN(c6ccc(Oc7c(-c8ccc(O)cc8)sc8cc(O)ccc78)cc6)CC5)CC4)ccc3C2=O)C(=O)N1` (centres unmarked) [Compound 244, 3-[5-[4-[[1-[4-(6-hydroxy-2-(4-hydroxyphenyl)benzothiophen-3-yl]oxyphenyl]-4-piperidyl]methyl]piperazin-1-yl]-1-oxo-isoindolin-2-yl]piperidine-2,6-dione] the same measures were 1 to 10 nM, 50 to 75% and 0.18 nM.
